From ChEMBL document CHEMBL1144449, “Design, synthesis, and evaluation of orally active 4-(2,4-difluoro-5-(methoxycarbamoyl)phenylamino)pyrrolo[2,1-f][1,2,4]triazines as dual vascular endothelial growth factor receptor-2 and fibroblast growth factor receptor-1 inhibitors” (J Med Chem, 2005)

Assays:
[1] = target: Fibroblast growth factor receptor 1 (Homo sapiens, UniProt P11362); assay: Inhibition of human fibroblast growth factor receptor 1
[2] = target: Fibroblast growth factor receptor (Homo sapiens, UniProt P22607+P11362+P22455+P21802); assay: Inhibition of FGF-stimulated human umbilical vein endothelial cell proliferation; type: functional, cell-based
[3] = target: Vascular endothelial growth factor receptor 2 (Homo sapiens, UniProt P35968); assay: Inhibition of human vascular endothelial growth factor receptor 2 kinase activity
[4] = target: Vascular endothelial growth factor receptor (Homo sapiens, UniProt P17948+P35916+P35968); assay: Inhibition of VEGF-stimulated human umbilical vein endothelial cell proliferation; type: functional, cell-based
[5] = Plasma level after 4 hours of oral administration of 50 mg/kg compound in mouse; type: ADME, organism-based; set-up: dose 50 mg/kg, route oral; conditions: read-out: Plasma level
[6] = Plasma level after 1 hour of oral administration of 50 mg/kg compound in mouse; type: ADME, organism-based; set-up: dose 50 mg/kg, route oral; conditions: read-out: Plasma level
[7] = target: T1, Cytochrome P450 1A2 (Homo sapiens, UniProt P05177); assay: Inhibitory concentration against human cytochrome P450 1A2; type: ADME
T1 sequence (P05177 whole entry): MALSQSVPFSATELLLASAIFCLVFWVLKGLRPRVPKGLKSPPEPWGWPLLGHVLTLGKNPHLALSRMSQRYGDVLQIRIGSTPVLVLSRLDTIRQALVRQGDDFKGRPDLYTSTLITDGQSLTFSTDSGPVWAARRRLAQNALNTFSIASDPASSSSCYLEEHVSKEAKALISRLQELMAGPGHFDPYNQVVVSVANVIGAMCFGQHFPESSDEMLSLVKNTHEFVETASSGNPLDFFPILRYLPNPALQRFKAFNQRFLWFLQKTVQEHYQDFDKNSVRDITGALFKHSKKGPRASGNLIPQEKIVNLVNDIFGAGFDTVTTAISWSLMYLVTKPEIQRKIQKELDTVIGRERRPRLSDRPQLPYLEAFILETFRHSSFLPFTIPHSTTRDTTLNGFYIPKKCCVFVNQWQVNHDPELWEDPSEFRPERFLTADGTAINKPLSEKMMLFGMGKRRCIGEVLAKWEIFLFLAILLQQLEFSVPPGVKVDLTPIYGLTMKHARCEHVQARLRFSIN

[8] = target: Cytochrome P450 2C9 (Homo sapiens, UniProt P11712); assay: Inhibitory concentration against human cytochrome P450 2C9; type: ADME
[9] = target: Cytochrome P450 3A4 (Homo sapiens, UniProt P08684); assay: Inhibitory concentration against human cytochrome P450 3A4; type: ADME
[10] = target: Cyclin-dependent kinase 2 (Homo sapiens, UniProt P24941); assay: Inhibition of human cyclin-dependent kinase 2
[11] = system: Mus musculus; assay: Tumor growth inhibition determined after oral administration of 50 mg/kg/day compound against established L2987 human lung carcinoma xenografts implanted subcutaneously in athymic mouse; type: functional; conditions: read-out: TGI
[12] = system: Mus musculus; assay: Tumor growth inhibition determined after oral administration of 100 mg/kg/day compound against established L2987 human lung carcinoma xenografts implanted subcutaneously in athymic mouse; type: functional; conditions: read-out: TGI
[13] = target: Receptor tyrosine-protein kinase erbB-2 (Homo sapiens, UniProt P04626); assay: Inhibition against human HER2 kinase
[14] = target: Platelet-derived growth factor receptor beta (Homo sapiens, UniProt P09619); assay: Inhibition of human platelet-derived growth factor receptor beta
[15] = system: Mus musculus; assay: Tumor growth inhibition determined after oral administration of […] mg/kg/day compound against established L2987 human lung carcinoma xenografts implanted subcutaneously in athymic mouse; type: functional; conditions: read-out: TGI
[16] = target: Insulin-like growth factor 1 receptor (Homo sapiens, UniProt P08069); assay: Inhibition of human insulin-like growth factor I receptor
[17] = target: Protein kinase C alpha type (Homo sapiens, UniProt P17252); assay: Inhibition of human protein kinase C alpha
[18] = target: Tyrosine-protein kinase Lck (Homo sapiens, UniProt P06239); assay: Inhibition of human p56 lck tyrosine kinase
[19] = system: Mus musculus; assay: Tumor growth inhibition determined after oral administration of 60 mg/kg/day compound against established L2987 human lung carcinoma xenografts implanted subcutaneously in athymic mouse; type: functional; conditions: read-out: TGI

Sequence of Vascular endothelial growth factor receptor 2 (P35968 whole entry): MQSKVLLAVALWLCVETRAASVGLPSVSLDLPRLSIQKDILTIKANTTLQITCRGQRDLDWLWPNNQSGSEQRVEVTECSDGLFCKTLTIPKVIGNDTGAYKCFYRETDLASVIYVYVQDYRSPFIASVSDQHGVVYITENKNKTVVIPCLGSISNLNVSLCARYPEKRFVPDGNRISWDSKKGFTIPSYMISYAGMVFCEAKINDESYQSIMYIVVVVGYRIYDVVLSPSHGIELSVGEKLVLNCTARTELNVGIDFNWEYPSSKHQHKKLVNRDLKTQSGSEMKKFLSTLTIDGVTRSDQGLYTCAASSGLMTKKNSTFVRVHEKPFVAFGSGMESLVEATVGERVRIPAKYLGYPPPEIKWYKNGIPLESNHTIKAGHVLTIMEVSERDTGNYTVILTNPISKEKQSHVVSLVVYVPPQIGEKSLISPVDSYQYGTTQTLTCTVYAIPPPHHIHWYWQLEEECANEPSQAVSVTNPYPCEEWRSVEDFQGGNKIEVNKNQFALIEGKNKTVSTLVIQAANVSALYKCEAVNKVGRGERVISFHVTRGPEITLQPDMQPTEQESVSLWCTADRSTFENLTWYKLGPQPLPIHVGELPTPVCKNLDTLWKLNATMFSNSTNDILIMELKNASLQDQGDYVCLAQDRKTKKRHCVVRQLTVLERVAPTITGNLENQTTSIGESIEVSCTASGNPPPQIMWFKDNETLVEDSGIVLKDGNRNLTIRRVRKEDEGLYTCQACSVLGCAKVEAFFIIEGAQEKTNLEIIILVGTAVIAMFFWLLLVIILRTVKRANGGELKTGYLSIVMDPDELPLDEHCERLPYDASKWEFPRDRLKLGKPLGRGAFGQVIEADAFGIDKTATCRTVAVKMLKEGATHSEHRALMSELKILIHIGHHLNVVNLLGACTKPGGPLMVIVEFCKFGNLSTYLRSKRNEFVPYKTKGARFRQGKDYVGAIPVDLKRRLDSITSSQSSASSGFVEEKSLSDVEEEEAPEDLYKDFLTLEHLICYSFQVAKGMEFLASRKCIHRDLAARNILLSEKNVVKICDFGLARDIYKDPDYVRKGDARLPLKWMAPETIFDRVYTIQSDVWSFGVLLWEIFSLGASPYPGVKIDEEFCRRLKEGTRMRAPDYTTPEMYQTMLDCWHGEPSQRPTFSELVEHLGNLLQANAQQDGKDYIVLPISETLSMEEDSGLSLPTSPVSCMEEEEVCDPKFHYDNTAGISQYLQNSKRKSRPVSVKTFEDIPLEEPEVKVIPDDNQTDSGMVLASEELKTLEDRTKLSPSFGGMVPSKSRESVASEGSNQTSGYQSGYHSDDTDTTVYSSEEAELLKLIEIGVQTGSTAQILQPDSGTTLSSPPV
Sequence of Fibroblast growth factor receptor 1 (P11362 whole entry): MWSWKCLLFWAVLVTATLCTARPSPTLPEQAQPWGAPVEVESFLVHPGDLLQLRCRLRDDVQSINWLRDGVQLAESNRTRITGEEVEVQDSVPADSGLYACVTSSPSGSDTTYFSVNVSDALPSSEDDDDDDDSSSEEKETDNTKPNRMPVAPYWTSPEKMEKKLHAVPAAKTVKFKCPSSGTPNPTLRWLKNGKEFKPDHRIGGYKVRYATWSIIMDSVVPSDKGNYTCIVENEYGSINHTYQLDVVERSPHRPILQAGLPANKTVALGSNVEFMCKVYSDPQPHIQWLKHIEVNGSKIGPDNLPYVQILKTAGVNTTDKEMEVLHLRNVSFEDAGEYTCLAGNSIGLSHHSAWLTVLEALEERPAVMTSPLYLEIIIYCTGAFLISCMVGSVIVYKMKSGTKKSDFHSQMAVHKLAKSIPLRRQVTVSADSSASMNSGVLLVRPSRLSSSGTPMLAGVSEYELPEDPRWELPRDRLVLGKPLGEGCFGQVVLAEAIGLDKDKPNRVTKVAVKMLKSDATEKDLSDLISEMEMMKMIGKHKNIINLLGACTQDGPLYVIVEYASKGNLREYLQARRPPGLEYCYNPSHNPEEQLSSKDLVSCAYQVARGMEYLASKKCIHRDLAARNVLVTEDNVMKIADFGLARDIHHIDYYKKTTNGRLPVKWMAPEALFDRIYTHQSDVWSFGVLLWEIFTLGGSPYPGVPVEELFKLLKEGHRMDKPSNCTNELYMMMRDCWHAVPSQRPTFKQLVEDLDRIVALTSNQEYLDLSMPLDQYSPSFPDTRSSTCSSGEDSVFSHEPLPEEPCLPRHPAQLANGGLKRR
Sequence of Insulin-like growth factor 1 receptor (P08069 31-736 limits assumed): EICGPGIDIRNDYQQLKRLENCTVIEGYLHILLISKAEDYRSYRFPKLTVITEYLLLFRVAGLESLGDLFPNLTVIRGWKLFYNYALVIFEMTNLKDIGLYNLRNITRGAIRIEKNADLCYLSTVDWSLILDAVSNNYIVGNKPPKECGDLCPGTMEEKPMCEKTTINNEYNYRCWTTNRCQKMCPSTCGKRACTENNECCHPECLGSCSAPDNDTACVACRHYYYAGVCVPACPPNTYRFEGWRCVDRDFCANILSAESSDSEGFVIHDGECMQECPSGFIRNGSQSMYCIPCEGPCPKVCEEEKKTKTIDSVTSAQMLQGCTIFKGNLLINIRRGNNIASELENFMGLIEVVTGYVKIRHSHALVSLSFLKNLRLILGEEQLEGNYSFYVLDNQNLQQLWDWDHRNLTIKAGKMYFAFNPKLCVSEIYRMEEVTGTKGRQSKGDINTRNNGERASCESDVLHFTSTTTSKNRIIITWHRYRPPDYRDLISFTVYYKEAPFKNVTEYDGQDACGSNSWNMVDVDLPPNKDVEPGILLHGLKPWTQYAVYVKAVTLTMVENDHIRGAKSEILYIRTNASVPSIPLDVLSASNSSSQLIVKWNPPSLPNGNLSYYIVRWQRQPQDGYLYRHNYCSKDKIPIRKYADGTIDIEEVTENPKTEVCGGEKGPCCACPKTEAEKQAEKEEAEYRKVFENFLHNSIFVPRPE
Sequence of Insulin-like growth factor 1 receptor (P08069 741-1367 limits assumed): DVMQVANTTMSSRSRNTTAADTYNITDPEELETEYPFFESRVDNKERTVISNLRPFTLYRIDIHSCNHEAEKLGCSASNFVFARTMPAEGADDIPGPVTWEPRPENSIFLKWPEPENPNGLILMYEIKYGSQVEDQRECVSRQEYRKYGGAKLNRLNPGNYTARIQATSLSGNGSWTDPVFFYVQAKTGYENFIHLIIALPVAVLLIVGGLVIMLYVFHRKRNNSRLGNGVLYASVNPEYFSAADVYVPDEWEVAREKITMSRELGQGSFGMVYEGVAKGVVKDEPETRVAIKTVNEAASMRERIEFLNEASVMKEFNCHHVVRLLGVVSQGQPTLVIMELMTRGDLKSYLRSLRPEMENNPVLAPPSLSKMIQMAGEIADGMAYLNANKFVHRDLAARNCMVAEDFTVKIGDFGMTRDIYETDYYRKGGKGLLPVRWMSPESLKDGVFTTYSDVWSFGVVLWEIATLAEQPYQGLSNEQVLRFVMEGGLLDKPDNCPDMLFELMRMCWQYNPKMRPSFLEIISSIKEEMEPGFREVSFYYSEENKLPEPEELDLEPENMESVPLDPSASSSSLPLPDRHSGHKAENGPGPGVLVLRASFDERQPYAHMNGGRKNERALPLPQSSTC
Sequence of Platelet-derived growth factor receptor beta (P09619 whole entry): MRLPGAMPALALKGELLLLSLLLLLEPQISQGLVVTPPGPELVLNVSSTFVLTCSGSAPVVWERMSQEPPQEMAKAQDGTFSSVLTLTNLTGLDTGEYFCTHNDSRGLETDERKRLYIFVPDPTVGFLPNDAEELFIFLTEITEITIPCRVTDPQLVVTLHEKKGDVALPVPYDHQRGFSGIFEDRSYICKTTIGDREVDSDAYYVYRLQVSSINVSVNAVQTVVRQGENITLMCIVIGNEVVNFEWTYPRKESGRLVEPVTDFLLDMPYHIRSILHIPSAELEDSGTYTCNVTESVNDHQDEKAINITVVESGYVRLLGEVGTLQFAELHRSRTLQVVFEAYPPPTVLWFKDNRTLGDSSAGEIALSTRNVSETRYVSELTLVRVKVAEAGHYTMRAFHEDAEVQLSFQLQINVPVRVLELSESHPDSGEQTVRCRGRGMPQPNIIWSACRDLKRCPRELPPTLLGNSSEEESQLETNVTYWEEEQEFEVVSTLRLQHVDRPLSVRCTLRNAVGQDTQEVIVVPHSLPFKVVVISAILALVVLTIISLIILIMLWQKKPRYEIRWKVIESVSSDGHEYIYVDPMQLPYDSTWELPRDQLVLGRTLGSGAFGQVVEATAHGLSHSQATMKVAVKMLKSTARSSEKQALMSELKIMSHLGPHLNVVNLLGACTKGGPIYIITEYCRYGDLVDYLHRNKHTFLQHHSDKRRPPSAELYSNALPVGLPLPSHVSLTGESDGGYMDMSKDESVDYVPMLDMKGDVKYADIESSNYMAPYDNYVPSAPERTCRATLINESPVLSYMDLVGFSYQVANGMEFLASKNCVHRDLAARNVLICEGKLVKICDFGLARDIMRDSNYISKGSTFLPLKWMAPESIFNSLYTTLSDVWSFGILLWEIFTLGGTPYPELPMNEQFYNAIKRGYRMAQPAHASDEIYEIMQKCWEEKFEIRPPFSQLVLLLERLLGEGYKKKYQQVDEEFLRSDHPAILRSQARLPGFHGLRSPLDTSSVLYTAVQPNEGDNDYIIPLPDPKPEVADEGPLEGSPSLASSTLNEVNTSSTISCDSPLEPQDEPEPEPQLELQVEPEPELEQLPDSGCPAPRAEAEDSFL

| Compound | IC50 [1] [nM] | IC50 [2] [nM] | IC50 [3] [nM] | IC50 [4] [nM] | also measured |
| --- | --- | --- | --- | --- | --- |
| CONC(=O)c1cc(Nc2ncnn3cc(-c4nnc(C5CC5)o4)c(C(C)C)c23)c(F)cc1F | 14 | 5.3 | 11 | 3.6 |  |
| CONC(=O)c1cc(Nc2ncnn3cc(NC(=O)OC4CCN(C)CC4)c(C(C)C)c23)c(F)cc1F |  |  | 36 | 19 | concentration at 4 h [5]: 3 µM; concentration at 1 h [6]: 5.1 µM |
| CONC(=O)c1cc(Nc2ncnn3cc(-c4nnc(CC5CC5)o4)c(C(C)C)c23)c(F)cc1F | 27 | 9.2 | 17 | 4 |  |
| CONC(=O)c1cc(Nc2ncnn3cc(-c4nnc(CC(C)C)o4)c(C(C)C)c23)c(F)cc1F | 33 | 6.6 | 23 | 2.1 |  |
| CONC(=O)c1cc(Nc2ncnn3cc(-c4n[nH]c(C)n4)c(C(C)C)c23)c(F)cc1F | 50 | 46 | 71 | 50 |  |
| CCOC(=O)c1cn2ncnc(Nc3ccc(Br)c(C(=O)NOC)c3)c2c1C(C)C |  |  | 270 |  |  |
| CONC(=O)c1cc(Nc2ncnn3cc(-c4ncc(C)o4)c(C(C)C)c23)c(F)cc1F | 20 | 4 | 8 | 1.1 | IC50 [7]: 64 nM; IC50 [8]: 3.6 µM; IC50 [9]: 5.1 µM |
| CONC(=O)c1cc(Nc2ncnn3cc(-c4noc(C)n4)c(C(C)C)c23)c(F)cc1F | 140 |  | 110 |  |  |
| CONC(=O)c1cc(Nc2ncnn3cc(NC(=O)OCCCS(C)(=O)=O)c(C(C)C)c23)c(F)cc1F | 58 |  |  |  | IC50 [10]: > 50 µM; concentration at 4 h [5]: 13.8 µM; IC50 [13]: 5.3 µM; IC50 [14]: > 2000 nM; concentration at 1 h [6]: 7.9 µM; IC50 [18]: 5.1 µM; IC50 [16]: > 25 µM; IC50 [17]: > 50 µM |
| CCOC(=O)c1cn2ncnc(Nc3cc(C(=O)NOC)c(F)cc3F)c2c1C(C)C |  |  | 13 |  |  |
| CONC(=O)c1cc(Nc2ncnn3cc(-c4nnco4)c(C(C)C)c23)c(F)cc1F | 160 | 54 | 77 | 91 |  |

Further lines, with some results ahead:

| IC50 [1] [nM] | IC50 [2] [nM] | IC50 [3] [nM] | IC50 [4] [nM] | Compound | also measured |
| --- | --- | --- | --- | --- | --- |
|  |  | 1200 |  | CCOC(=O)c1cn2ncnc(Nc3cc(C(=O)NOCC(C)C)c(F)cc3F)c2c1C(C)C |  |
|  |  | 79 | 62 | CONC(=O)c1cc(Nc2ncnn3cc(NC(=O)OCCCN4CCCCC4)c(C(C)C)c23)c(F)cc1F |  |
| 100 | 21 |  |  | CONC(=O)c1cc(Nc2ncnn3cc(-c4nnc(C(F)F)o4)c(C(C)C)c23)c(F)cc1F | IC50 [10]: > 50 µM; inhibition in vivo at 50 mg/kg/day [11]: 30%; inhibition in vivo at 100 mg/kg/day [12]: 46.5%; concentration at 4 h [5]: 155 µM; IC50 [13]: > 10 µM; IC50 [14]: > 2000 nM; inhibition in vivo at 150 mg/kg/day [15]: 88.4%; concentration at 1 h [6]: 187 µM; IC50 [16]: > 25 µM; IC50 [17]: > 50 µM |
| 68 | 44 | 29 | 25 | CONC(=O)c1cc(Nc2ncnn3cc(-c4nnc(CC(F)(F)F)o4)c(C(C)C)c23)c(F)cc1F |  |
|  |  | 190 |  | CCOC(=O)c1cn2ncnc(Nc3cc(C(=O)NOCC4CC4)c(F)cc3F)c2c1C(C)C |  |
| 16 | 4.6 | 16 | 2.1 | CONC(=O)c1cc(Nc2ncnn3cc(-c4nnc(CS(C)(=O)=O)o4)c(C(C)C)c23)c(F)cc1F | inhibition in vivo at 100 mg/kg/day [12]: 74.9%; inhibition in vivo at 60 mg/kg/day [19]: 42.6%; concentration at 4 h [5]: 232 µM; concentration at 1 h [6]: 288 µM |
